# Measured values reported in patent publication US9403785B2, “Process for preparing amorphous cabazitaxel” (SHILPA MEDICARE LIMITED, priority 2012, dated 2016).
# Columns and labels:
# [1] = compared with acetone solvate form (Form A); cited from earlier work
# [2] = Storage stability of solid form (morphology and physicochemical characteristics); conditions: solid material obtained after solvent recovery
# Text: The merit of the process according to the present invention resides in that—product obtained after recovery is obtained in non-solvated amorphous form of Cabazitaxel. Said material was found devoid of any crystal lattice and adequately stable to handle and store for longer time (at least up to more than 6 months) without any significant or measurable change in its morphology and physicochemical characteristics.
# [3] = cited from earlier work
structure (smiles),measurement,setting,value
"CO[C@H]1C(=O)[C@]2(C)[C@@H](OC)C[C@H]3OC[C@@]3(OC(C)=O)[C@H]2[C@H](OC(=O)c2ccccc2)[C@]2(O)C[C@H](OC(=O)[C@H](O)[C@@H](NC(=O)OC(C)(C)C)c3ccccc3)C(C)=C1C2(C)C [Form D anhydrous, 4-acetoxy-2α-benzoyloxy-5β,20-epoxy-1-hydroxy-7β,10β-dimethoxy-9-oxotax-11-en-13α-yl (2R,3S)-3-tert-butoxycarbonylamino-2-hydroxy-3-phenyl-propionate]",stability of solid form,[1],"highly stable, even more stable than acetone solvate form (Form A)"
"CO[C@H]1C(=O)[C@@]2(C)C([C@H](OC(=O)c3ccccc3)[C@]3(O)C[C@H](OC(=O)[C@H](O)[C@H](NC(=O)OC(C)(C)C)c4ccccc4)C(C)=C1C3(C)C)[C@]1(OC(C)=O)CO[C@@H]1C[C@@H]2OC (stereo in doubt) [(2α,5β,7β,10β,13α)-4-acetoxy-13-({(2R,3S)-3[(tert-butoxy-carbonyl)amino]-2-hydroxy-3-phenylpropanoyl}oxy)-1-hydroxy-7,10-dimethoxy-9-oxo-5,20-epoxytax-11-en-2-yl benzoate]",time handled and stored without any significant or measurable change in morphology and physicochemical characteristics,[2],more than 6 months
"CO[C@H]1C(=O)[C@@]2(C)C([C@H](OC(=O)c3ccccc3)[C@]3(O)C[C@H](OC(=O)[C@H](O)[C@H](NC(=O)OC(C)(C)C)c4ccccc4)C(C)=C1C3(C)C)[C@]1(OC(C)=O)CO[C@@H]1C[C@@H]2OC (stereo partly drawn) [Cabazitaxel, (2α,5β,7β,10β,13α)-4-acetoxy-13-({(2R,3S)-3[(tert-butoxycarbonyl)amino]-2-hydroxy-3-phenylpropanoyl}oxy)-1-hydroxy-7,10-dimethoxy-9-oxo-5,20-epoxytax-11-en-2-yl benzoate]",solubility in water,[3],practically insoluble in water
